The values below come from ChEMBL document CHEMBL5058564, “EUbOPEN Chemogenomics Library 2 (Incucyte)” (2022).

Holding throughout (format): toxicity, cell-based
One data set relates to U2OS. The data set is described as follows: Incucyte cell viability with U2OS. As to conditions: human, 10 µM, compound concentration 10 uM.
For a further data set, the system named is HEK-293T. The data set is described as follows: Incucyte cell viability with HEK293T. The conditions noted are these: human, 10 µM, compound concentration 10 uM.
A further data set relates to Fibroblast. As to the kind of experiment: Incucyte cell viability with human fibroblast. As to conditions: 10 µM, compound concentration 10 uM.
The mark [1] stands for this setting: 0 h, replicate number 1, timepoint 0 hours.
The mark [2] stands for this setting: 0 h, replicate number 2, timepoint 0 hours.
Setting [3] is: 6 h, replicate number 1, timepoint 6 hours.
The mark [4] stands for this setting: 12 h, replicate number 1, timepoint 12 hours.
Setting [5] is: 18 h, replicate number 1, timepoint 18 hours.
Where [6] appears, read: 24 h, replicate number 1, timepoint 24 hours.
The mark [7] stands for this setting: 6 h, replicate number 2, timepoint 6 hours.
Where [8] appears, read: 12 h, replicate number 2, timepoint 12 hours.
The mark [9] stands for this setting: 18 h, replicate number 2, timepoint 18 hours.
Setting [10] is: 24 h, replicate number 2, timepoint 24 hours.
Further: unitless GR value; below 1 slowed growth and below 0 cell loss.

In the case of `CC(C)Oc1ccc(-c2c[nH]cc2CN(C)CCO)cc1`, the “Growth Rate” value is on record as -0.46 in the data set on U2OS (setting [1]); 0.69 with U2OS (setting [2]); 0.97 in the data set with U2OS (setting [3]); 0.45 in the data set on U2OS (setting [4]); 0.71 with U2OS (setting [5]); 0.94 in the data set with U2OS (setting [6]). Further, the “Growth Rate” value in the data set on HEK-293T (setting [1]) turned out to be 0.59; in the data set on HEK-293T (setting [2]), 0.6; with HEK-293T (setting [6]), 1; with Fibroblast (setting [1]) it was 0.53; in the data set on Fibroblast (setting [2]), 0.41.

For `CCC(=O)N1CC[C@H](Nc2ncnc3c2CN(c2cnc(OC)c(C(F)(F)F)c2)CC3)C1` [LENIOLISIB], the “Growth Rate” value in the data set on U2OS (setting [1]) turned out to be 0.57; in the data set on U2OS (setting [2]) it was 0.52; with U2OS (setting [3]), 0.65; in the data set with U2OS (setting [7]) it was 0.66; with U2OS (setting [8]) it was 0.58; with U2OS (setting [5]), 0.83. For the same compound, the “Growth Rate” value is 0.79 in the data set with U2OS (setting [9]); 0.81 with U2OS (setting [6]); 0.79 with U2OS (setting [10]); 0.27 in the data set on HEK-293T (setting [3]); -0.14 in the data set on HEK-293T (setting [7]); 0.69 in the data set on HEK-293T (setting [4]). In addition, the “Growth Rate” value was 0.28 in the data set on HEK-293T (setting [8]); 0.81 in the data set on HEK-293T (setting [5]); 0.66 in the data set with HEK-293T (setting [9]); 0.96 in the data set on HEK-293T (setting [6]); 0.71 in the data set with HEK-293T (setting [10]); -0.68 with Fibroblast (setting [3]). Also, the “Growth Rate” value with Fibroblast (setting [7]) is recorded as 0.91; in the data set on Fibroblast (setting [4]) it was 0.26; in the data set on Fibroblast (setting [5]), 0.75; in the data set with Fibroblast (setting [6]) it was 0.72.

Take `CCOc1nc2cccc(C(=O)O)c2n1Cc1ccc(-c2ccccc2-c2nnn[nH]2)cc1`: the “Growth Rate” value came to 0.85 in the data set with U2OS (setting [4]); 0.99 in the data set with U2OS (setting [8]); 0.58 in the data set on U2OS (setting [5]); 0.86 in the data set on HEK-293T (setting [1]); 0.52 in the data set on HEK-293T (setting [2]); 0.94 in the data set on HEK-293T (setting [7]). Also, the “Growth Rate” value with Fibroblast (setting [2]) is given as 0.54; in the data set with Fibroblast (setting [3]) it was 0.77; with Fibroblast (setting [7]), 0.71; in the data set on Fibroblast (setting [8]), 0.56; in the data set on Fibroblast (setting [5]), 0.8; in the data set with Fibroblast (setting [6]) it was 0.89. Besides, the “Growth Rate” value in the data set on Fibroblast (setting [10]) is reported as 0.45.

For the compound `Brc1c(N=C2NCCN2)ccc2nccnc12.O=C(O)C(O)C(O)C(=O)O`, the “Growth Rate” value in the data set with U2OS (setting [1]) worked out at 0.29; in the data set with U2OS (setting [3]), 0.6; with U2OS (setting [4]), 0.41; in the data set with U2OS (setting [5]), 0.78; with U2OS (setting [9]), 0.91; in the data set with U2OS (setting [6]), 0.89. Besides, the “Growth Rate” value in the data set with HEK-293T (setting [1]) came out at 0.76; in the data set with HEK-293T (setting [2]) it was 0.92; with HEK-293T (setting [3]), 0.47; in the data set with HEK-293T (setting [7]), 0.95; in the data set on HEK-293T (setting [4]) it was 0.79; in the data set on HEK-293T (setting [8]), 0.72. The “Growth Rate” value with HEK-293T (setting [5]) amounted to 0.92; in the data set with HEK-293T (setting [6]) it was 0.83; with HEK-293T (setting [10]), 0.88; in the data set on Fibroblast (setting [2]), 0.6; in the data set on Fibroblast (setting [3]) it was 0.39; in the data set on Fibroblast (setting [7]) it was 0.7. The “Growth Rate” value in the data set on Fibroblast (setting [4]) came out at 0.82; in the data set on Fibroblast (setting [8]), 0.94; with Fibroblast (setting [5]) it was 0.86; in the data set with Fibroblast (setting [9]), 0.83; in the data set with Fibroblast (setting [6]) it was 0.87; in the data set on Fibroblast (setting [10]), 0.91.

On to `CS(=O)(=O)N1CCCC(NC(=O)[C@H](CCC2CCCCC2)NC(=O)c2ccc(CNc3ncnc4c3nnn4-c3ccccc3)cc2)C1` (some centres undefined) [SR-301], for which the “Growth Rate” value with U2OS (setting [1]) was determined as 0.63; in the data set on U2OS (setting [3]), 0.78; with U2OS (setting [4]) it was 0.94; in the data set with U2OS (setting [5]) it was 0.6; with U2OS (setting [9]) it was 0.89; in the data set on U2OS (setting [6]), 0.6. Further, the “Growth Rate” value in the data set on HEK-293T (setting [2]) was 0.12; in the data set on HEK-293T (setting [3]), -0.5; in the data set on HEK-293T (setting [4]), -0.33; in the data set on HEK-293T (setting [5]) it was -0.23; with HEK-293T (setting [6]) it was -0.11; in the data set on Fibroblast (setting [2]), -0.06. Moreover, the “Growth Rate” value in the data set on Fibroblast (setting [3]) is -0.33; with Fibroblast (setting [4]), -0.47; in the data set on Fibroblast (setting [5]) it was -0.48; with Fibroblast (setting [6]), -0.39.

As to `COc1cc2nc(N3CCN(C(=O)COc4c(OC)cccc4C(C)C)CC3)nc(N)c2cc1OC.Cl.Cl`, the “Growth Rate” value is given as -1 in the data set with U2OS (setting [2]); 0.56 in the data set with U2OS (setting [4]); 0.59 with HEK-293T (setting [2]); -0.28 in the data set with HEK-293T (setting [3]); 0.9 in the data set with HEK-293T (setting [7]); -0.06 in the data set on HEK-293T (setting [4]). Moreover, the “Growth Rate” value in the data set with HEK-293T (setting [8]) is listed as 0.66; in the data set with HEK-293T (setting [5]), 0.21; in the data set with HEK-293T (setting [9]), 0.61; in the data set on HEK-293T (setting [6]), 0.39; in the data set on HEK-293T (setting [10]), 0.84; in the data set on Fibroblast (setting [2]), 0.71. Further, the “Growth Rate” value in the data set with Fibroblast (setting [3]) is -0.72; in the data set on Fibroblast (setting [7]) it was -0.55; in the data set on Fibroblast (setting [4]), -0.84; in the data set with Fibroblast (setting [8]), -0.41; in the data set on Fibroblast (setting [5]), -0.75; in the data set on Fibroblast (setting [9]) it was -0.48. The results for the “Growth Rate” value with Fibroblast (setting [6]) and in the data set on Fibroblast (setting [10]) were -0.65 and -0.39, respectively.

`O=C(NC[C@@H]1[C@H]2CN(C(=O)OCc3cc(C(F)(F)F)cc(C(F)(F)F)c3)C[C@@H]12)c1ccc2[nH]nnc2c1` [BI 2545]: the “Growth Rate” value in the data set on U2OS (setting [2]) is listed as 0.37; with U2OS (setting [4]), 0.93; in the data set on U2OS (setting [5]), 0.99; in the data set with HEK-293T (setting [3]) it was 0.33; in the data set on HEK-293T (setting [7]), 0.67; with HEK-293T (setting [4]), 0.61. The “Growth Rate” value in the data set on HEK-293T (setting [8]) is 0.92; in the data set on HEK-293T (setting [5]), 0.65; with HEK-293T (setting [6]) it was 0.64; with HEK-293T (setting [10]) it was 0.88; with Fibroblast (setting [3]), -0.83; with Fibroblast (setting [7]), -0.59. For the same compound, the “Growth Rate” value with Fibroblast (setting [4]) is reported as -0.64; in the data set with Fibroblast (setting [8]), -0.1; in the data set on Fibroblast (setting [5]), -0.55; in the data set on Fibroblast (setting [9]), 0.22; in the data set on Fibroblast (setting [6]) it was -0.35; in the data set on Fibroblast (setting [10]), 0.57.

Turning to `CN(c1ncccc1CNc1ccnc(-c2cc3cc(Cl)ccc3[nH]2)n1)S(C)(=O)=O`, the “Growth Rate” value in the data set on U2OS (setting [1]) is -0.74; in the data set with U2OS (setting [2]), 1; with U2OS (setting [3]), 0.59; in the data set on U2OS (setting [4]) it was 0.52; with U2OS (setting [8]), 0.71; with U2OS (setting [5]) it was 0.58. The “Growth Rate” value is listed as 0.74 in the data set with U2OS (setting [9]); 0.61 with U2OS (setting [6]); 0.7 in the data set with U2OS (setting [10]); -0.71 in the data set with HEK-293T (setting [3]); -0.53 in the data set on HEK-293T (setting [7]); -0.48 in the data set with HEK-293T (setting [4]). The “Growth Rate” value is -0.31 in the data set on HEK-293T (setting [8]); -0.36 with HEK-293T (setting [5]); -0.25 with HEK-293T (setting [9]); -0.24 with HEK-293T (setting [6]); -0.09 in the data set on HEK-293T (setting [10]); -0.63 with Fibroblast (setting [3]). The “Growth Rate” value in the data set on Fibroblast (setting [7]) is given as -0.2; with Fibroblast (setting [4]) it was -0.43; in the data set on Fibroblast (setting [8]) it was -0.15; in the data set with Fibroblast (setting [5]), -0.12; in the data set on Fibroblast (setting [9]), -0.08; in the data set with Fibroblast (setting [6]), 0.15. Further, the “Growth Rate” value in the data set with Fibroblast (setting [10]) worked out at 0.04.

Turning to `CCCn1c(=O)c2[nH]c(C3CCCC3)nc2n(CCC)c1=O` [1,3-DIPROPYL-8-CYCLOPENTYLXANTHINE [DPCPX]], the “Growth Rate” value was -0.53 in the data set on U2OS (setting [1]); -1 with U2OS (setting [2]); 0.95 in the data set on U2OS (setting [9]); 0.58 with HEK-293T (setting [1]); 0.57 in the data set on HEK-293T (setting [3]); 0.79 in the data set on HEK-293T (setting [7]). In addition, the “Growth Rate” value with HEK-293T (setting [4]) was 0.84; in the data set on HEK-293T (setting [5]) it was 0.81; in the data set on HEK-293T (setting [6]) it was 0.72; in the data set with Fibroblast (setting [1]), 0.19; in the data set with Fibroblast (setting [2]), 0.38; with Fibroblast (setting [3]), -0.31. For the same compound, the figures for the “Growth Rate” value with Fibroblast (setting [4]), with Fibroblast (setting [5]) and in the data set on Fibroblast (setting [6]) were 0.03, -0.16 and -0.1, respectively.
